target: T1, CMKLR1 (Homo sapiens, UniProt Q99788); experiment: Calcium mobilization assay (CHO-Ga16-CMKLR1 cells, chemerin-9 induced signal); assay type: cell-based; conditions: Table 2, IC50 class, calcium signal induced by 2.5 nM chemerin-9
T1 construct: expressed in transfected cells; host or cells: CHO-K1 cells expressing Gα-16 (CHO-Ga16-CMKLR1)
T1 sequence (Q99788 1-373): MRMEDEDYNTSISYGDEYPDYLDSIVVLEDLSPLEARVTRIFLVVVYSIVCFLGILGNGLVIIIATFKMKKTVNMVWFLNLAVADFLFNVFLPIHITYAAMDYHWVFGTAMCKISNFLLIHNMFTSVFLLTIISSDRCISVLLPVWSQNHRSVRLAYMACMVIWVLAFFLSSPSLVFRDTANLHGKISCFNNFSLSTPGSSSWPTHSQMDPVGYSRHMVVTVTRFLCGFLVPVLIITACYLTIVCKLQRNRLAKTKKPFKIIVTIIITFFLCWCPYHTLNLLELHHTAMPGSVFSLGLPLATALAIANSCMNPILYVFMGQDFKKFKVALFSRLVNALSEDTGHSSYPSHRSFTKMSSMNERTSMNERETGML
Method: To establish a CMKLR1 calcium mobilization cell evaluation system, CHO-K1 cells expressing Gα-16 were transfected with pcDNA3.1-derived human CMKLR1-expressing plasmids using Lipofectamine 2000 (Invitrogen, Waltham, Massachusetts, USA). […] The established cell line (CHO-Ga16-CMKLR1) was cultured in F-12 medium (Invitrogen) supplemented with 10% (v/v) fetal bovine serum (FBS; Invitrogen), 0.5 mg/mL geneticin, 0.2 mg/mL hygromycin B (Clontech), and 1% (v/v) antibiotic-antimycotic solution (Invitrogen) under 5% CO2 at 37°C.
100 µL/well was added to a 96-well plate (Corning) and incubated for 24 h. The buffer solution was prepared by adding 1 M HEPES solution to Hanks' Balanced Salt Solution (HBSS) (Invitrogen) and adjusting the pH to 7.4 by dropwise addition of 1 M NaOH.
The fluorescent dye solution was prepared using the buffer provided with the Calcium 5 Assay Kit (Molecular Devices). 40 µL/well of dye solution was added to each well and incubated at 37°C in a 5% CO2 atmosphere for 30 min. […] The final DMSO concentration was adjusted to 2%. 40 µL of each compound solution was added to the well and incubated for 30 min. […] Prism 5 software (GraphPad) was then used to obtain IC50 values for various compounds. IC50 values were derived based on concentration-response curves, and all experiments were repeated at least three times.

IC50, 100 to 1000 nM:
CC(CC(=O)O)c1ccc(OCc2ccc3c(-c4cc(Cl)c(O)c(Cl)c4)nn(C4CCCC4)c3c2)cc1 (centres unmarked) [Compound 20, 3-(4-((1-cyclopentyl-3-(3,5-dichloro-4-hydroxyphenyl)-1H-indazol-6-yl)methoxy)phenyl)butanoic acid]

IC50, > 1000 nM:
Cc1ccc(-c2nn(C3CCCC3)c3cc(COc4ccc(C(C)CC(=O)O)cc4)ccc23)cc1 (centres unmarked) [Compound 11, 3-(4-((1-cyclopentyl-3-(p-tolyl)-1H-indazol-6-yl)methoxy)phenyl)butanoic acid]
CC(CC(=O)O)c1ccc(OCc2ccc3c(-c4cccc(O)c4)nn(C4CCCC4)c3c2)cc1 (centres unmarked) [Compound 14, 3-(4-((1-cyclopentyl-3-(3-hydroxyphenyl)-1H-indazol-6-yl)methoxy)phenyl)butanoic acid]
COc1ccc(-c2nn(C3CCCC3)c3cc(COc4ccc(C(C)CC(=O)O)cc4)ccc23)cc1 (centres unmarked) [Compound 15, 3-(4-((1-cyclopentyl-3-(4-methoxyphenyl)-1H-indazol-6-yl)methoxy)phenyl)butanoic acid]
CC(CC(=O)O)c1ccc(OCc2ccc3c(-c4ccc(Cl)cc4)nn(C4CCCC4)c3c2)cc1 (centres unmarked) [Compound 18, 3-(4-((3-(4-chlorophenyl)-1-cyclopentyl-1H-indazol-6-yl)methoxy)phenyl)butanoic acid]
CC(CC(=O)O)c1ccc(OCc2ccc3c(-c4cc(C(F)(F)F)cc(C(F)(F)F)c4)nn(C4CCCC4)c3c2)cc1 (centres unmarked) [Compound 22, 3-(4-((3-(3,5-bis(trifluoromethyl)phenyl)-1-cyclopentyl-1H-indazol-6-yl)methoxy)phenyl)butanoic acid]
CC(CC(=O)O)c1ccc(OCc2ccc3c(-c4ccncc4)nn(C4CCCC4)c3c2)cc1 (centres unmarked) [Compound 23, 3-(4-((1-cyclopentyl-3-(pyridin-4-yl)-1H-indazol-6-yl)methoxy)phenyl)butanoic acid]
CC(CC(=O)O)c1ccc(OCc2ccc3c(-c4ccc(-c5ccccc5)cc4)nn(C4CCCC4)c3c2)cc1 (centres unmarked) [Compound 24, 3-(4-((3-([1,1'-biphenyl]-4-yl)-1-cyclopentyl-1H-indazol-6-yl)methoxy)phenyl)butanoic acid]
CC(CC(=O)O)c1ccc(OCc2ccc3c(-c4cc5ccccc5s4)nn(C4CCCC4)c3c2)cc1 (centres unmarked) [Compound 25, 3-(4-((3-(benzo[b]thiophen-2-yl)-1-cyclopentyl-1H-indazol-6-yl)methoxy)phenyl)butanoic acid]
CC(CC(=O)O)c1ccc(OCc2ccc3c(-c4cccc5ccccc45)nn(C4CCCC4)c3c2)cc1 (centres unmarked) [Compound 26, 3-(4-((1-cyclopentyl-3-(naphthalen-1-yl)-1H-indazol-6-yl)methoxy)phenyl)butanoic acid]
CCC(CC)Oc1ccc(-c2nn(C3CCCC3)c3cc(COc4ccc(C(C)CC(=O)O)cc4)ccc23)cc1 (centres unmarked) [Compound 27, 3-(4-((1-cyclopentyl-3-(4-(pentan-3-yloxy)phenyl)-1H-indazol-6-yl)methoxy)phenyl)butanoic acid]
CC(CC(=O)O)c1ccc(OCc2ccc3c(-c4ccc(OC/C=C/C(=O)O)cc4)nn(C4CCCC4)c3c2)cc1 (centres unmarked) [Compound 28, (E)-4-(4-(6-((4-(1-carboxypropan-2-yl)phenoxy)methyl)-1-cyclopentyl-1H-indazol-3-yl)phenoxy)but-2-enoic acid]
CCOc1ccc(-c2nn(C3CCCC3)c3cc(COc4ccc(C(C)CC(=O)O)cc4)ccc23)cc1 (centres unmarked) [Compound 29, 3-(4-((1-cyclopentyl-3-(4-ethoxyphenyl)-1H-indazol-6-yl)methoxy)phenyl)butanoic acid]

same assay, conditions: Table 3, IC50 class, calcium signal induced by 2.5 nM chemerin-9

IC50, > 1000 nM:
CC(CC(=O)O)c1ccc(OCc2ccc3c(-c4ccc5c(c4)OCO5)nn(C4CCCC4)c3c2)cc1 (centres unmarked) [Compound 31, 3-(4-((3-(Benzo[d][1,3]dioxol-5-yl)-1-cyclopentyl-1H-indazol-6-yl)methoxy)phenyl)butanoic acid]
CC(CC(=O)O)c1ccc(OCc2ccc3c(-c4nnn[nH]4)nn(C4CCCC4)c3c2)cc1 (centres unmarked) [Compound 32, 3-(4-((1-cyclopentyl-3-(1H-tetrazol-5-yl)-1H-indazol-6-yl)methoxy)phenyl)butanoic acid]
CC(CC(=O)O)c1ccc(OCc2ccc3c(-c4cc(Cl)nc(Cl)c4)nn(C4CCCC4)c3c2)cc1 (centres unmarked) [Compound 33, 3-(4-((1-cyclopentyl-3-(2,6-dichloropyridin-4-yl)-1H-indazol-6-yl)methoxy)phenyl)butanoic acid]
C[C@@H](CC(=O)O)c1ccc(OCc2ccc3c(-c4ccc(O)c([N+](=O)[O-])c4)nn(C4CCCC4)c3c2)cc1 [Compound 37, (S)-3-(4-((1-cyclopentyl-3-(4-hydroxy-3-nitrophenyl)-1H-indazol-6-yl)methoxy)phenyl)butanoic acid]
C[C@@H](CC(=O)O)c1ccc(OCc2ccc3c(-c4ccc(O)c(O)c4)nn(C4CCCC4)c3c2)cc1 [Compound 38]

IC50, 100 to 1000 nM:
C=CCOc1ccc(-c2nn(C3CCCC3)c3cc(COc4ccc(C(C)CC(=O)O)cc4)ccc23)cc1 (centres unmarked) [Compound 30, 3-(4-((3-(4-(allyloxy)phenyl)-1-cyclopentyl-1H-indazol-6-yl)methoxy)phenyl)butanoic acid]
CC(CC(=O)O)c1ccc(OCc2ccc3c(-c4cc(F)c(/C=N/O)c(F)c4)nn(C4CCCC4)c3c2)cc1 (centres unmarked) [Compound 34, (E)-3-(4-((1-cyclopentyl-3-(3,5-difluoro-4-((hydroxyimino)methyl)phenyl)-1H-indazol-6-yl)methoxy)phenyl)butanoic acid]
C[C@@H](CC(=O)O)c1ccc(OCc2ccc3c(-c4ccc(O)cc4Cl)nn(C4CCCC4)c3c2)cc1 [Compound 42, (S)-3-(4-((3-(2-chloro-4-hydroxyphenyl)-1-cyclopentyl-1H-indazol-6-yl)methoxy)phenyl)butanoic acid]
C[C@@H](CC(=O)O)c1ccc(OCc2ccc3c(-c4cc(Cl)c(O)c(Cl)c4)nn(C4CCCC4)c3c2)cc1 [Compound 44, (S)-3-(4-((1-cyclopentyl-3-(3,5-dichloro-4-hydroxyphenyl)-1H-indazol-6-yl)methoxy)phenyl)butanoic acid]

same assay, conditions: read-out: CMKLR1 activity in CHO cells (% inhibition at 10 µM), 10 µM compound, relative to calcium signal induced by 2.5 nM chemerin-9

Inhibition at 10 µM, 25%:
CC(C)C(CC(=O)O)c1ccc(OCc2ccc3c(-c4ccccc4)nn(C(C)C)c3c2)cc1 (centres unmarked) [Compound 8, 3-(4-((1-isopropyl-3-phenyl-1H-indazol-6-yl)methoxy)phenyl)-4-methylpentanoic acid]

Inhibition at 10 µM, 81%:
CC(CC(=O)O)c1ccc(OCc2ccc3c(-c4ccccc4)nn(C(C)C)c3c2)cc1 (centres unmarked) [Compound 7, 3-(4-((1-isopropyl-3-phenyl-1H-indazol-6-yl)methoxy)phenyl)butanoic acid]
CCC(CC(=O)O)c1ccc(OCc2ccc3c(-c4ccccc4)nn(C(C)C)c3c2)cc1 (centres unmarked) [Compound 9, 3-(4-((1-isopropyl-3-phenyl-1H-indazol-6-yl)methoxy)phenyl)pentanoic acid]

Inhibition at 10 µM, 10%:
CC(C)n1nc(-c2ccccc2)c2ccc(COc3ccc(CC(C)(C)C(=O)O)cc3)cc21 [Compound 3, 3-(4-((1-isopropyl-3-phenyl-1H-indazol-6-yl)methoxy)phenyl)-2,2-dimethylpropanoic acid]

From patent EP4775568A1, “NOVEL COMPOUND AND USE THEREOF FOR TREATING PSORIASIS” (Gwangju Institute of Science and Technology, priority 2023, dated 2025)
